# Data from patent US9708336B2, “Metallo-beta-lactamase inhibitors” (priority 2014, dated 2017).
# Where two headings read alike, the source gives them in different places.
# Key:
# IMP-1 = IMP-1 (Serratia marcescens, UniProt P52699); experiment: biochemical; format: biochemical; conditions: read-out: IMP-1 IC50
# VIM-1 = VIM-1 (Pseudomonas aeruginosa (strain ATCC 15692 / DSM 22644 / CIP 104116 / JCM 14847 / LMG 12228 / 1C / PRS 101 / PAO1), UniProt A0A0F7KYQ8); experiment: Enzyme activity: determination of IC50, fluorescence assay with CCF2-FA substrate (VIM-1); format: biochemical
# [1] = system: Serratia marcescens expressing IMP-1 (CL5741); experiment: Antibiotic potentiation activity: synergistic concentration (MITC95) with imipenem, OD600 growth; format: cell-based; conditions: for Serratia marcescens expressing IMP-1 (CL5741) MITC95: concentration giving 95% inhibition of bacterial growth
# Method in brief: (§1)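 CLB30005 was precultured on Mueller Hinton agar with 8 ug/ml imipenem, the other strains on trypticase soy agar with 5% sheep blood, overnight at 35 °C. Saline suspensions diluted 1:100 in 1.1× CAMHB received compound and 4 μg/ml imipenem, then 22–24 h at 35 °C before absorbance reading.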
# [2] = system: Klebsiella pneumoniae expressing VIM-1 (IHMA599644); experiment: as above; format: cell-based; conditions: for Klebsiella pneumoniae expressing VIM-1 (IHMA 599644) MITC95: concentration giving 95% inhibition of bacterial growth
# Method in brief: as §1
# [3] = system: Escherichia coli expressing NDM-1 (CLB30016); experiment: as above; format: cell-based; conditions: for Escherichia coli expressing NDM-1 (CLB 30016) MITC95: concentration giving 95% inhibition of bacterial growth
# Method in brief: as §1
# NDM-1 = NDM-1 (Klebsiella pneumoniae, UniProt C7C422); experiment: biochemical; format: biochemical; conditions: read-out: NDM-1 IC50
# [4] = IMP-1 enzyme, CCF2-FA fluorescence assay
# [5] = VIM-1 enzyme, CCF2-FA fluorescence assay, read-out: VIM-1 IC50
# [6] = Serratia marcescens expressing IMP-1 (CL5741), 95% growth inhibition
# [7] = Klebsiella pneumoniae expressing VIM-1 (IHMA599644), 95% growth inhibition
# [8] = Escherichia coli expressing NDM-1 (CLB30016), 95% growth inhibition
# [9] = NDM-1 enzyme, CCF2-FA fluorescence assay
# [10] = fluorescence assay with CCF2-FA substrate
# [11] = fluorescence assay with CCF2-FA substrate, read-out: VIM-1 IC50
# [12] = CL5741 (IMP-1), 95% inhibition of bacterial growth
# [13] = IHMA599644 (VIM-1), 95% inhibition of bacterial growth
# [14] = CLB30016 (NDM-1), 95% inhibition of bacterial growth
# [15] = IMP-1 enzyme, CCF2-FA substrate
# [16] = VIM-1 enzyme, CCF2-FA substrate, read-out: VIM-1 IC50
# [17] = Serratia marcescens CL5741 (IMP-1), 95% growth inhibition
# [18] = Klebsiella pneumoniae IHMA599644 (VIM-1), 95% growth inhibition
# [19] = (CLB30016, NDM-1), 95% growth inhibition
# [20] = NDM-1 enzyme, CCF2-FA substrate
# IMP-1, sequence (P52699 whole entry, looked up): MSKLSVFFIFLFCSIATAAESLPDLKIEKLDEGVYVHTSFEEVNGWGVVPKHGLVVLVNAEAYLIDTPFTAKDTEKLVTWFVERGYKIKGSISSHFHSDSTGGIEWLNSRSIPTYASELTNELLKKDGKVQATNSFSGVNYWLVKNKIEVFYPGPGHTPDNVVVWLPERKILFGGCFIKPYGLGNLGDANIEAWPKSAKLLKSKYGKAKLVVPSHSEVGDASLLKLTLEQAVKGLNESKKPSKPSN
# NDM-1, sequence (C7C422 whole entry, looked up, species assumed): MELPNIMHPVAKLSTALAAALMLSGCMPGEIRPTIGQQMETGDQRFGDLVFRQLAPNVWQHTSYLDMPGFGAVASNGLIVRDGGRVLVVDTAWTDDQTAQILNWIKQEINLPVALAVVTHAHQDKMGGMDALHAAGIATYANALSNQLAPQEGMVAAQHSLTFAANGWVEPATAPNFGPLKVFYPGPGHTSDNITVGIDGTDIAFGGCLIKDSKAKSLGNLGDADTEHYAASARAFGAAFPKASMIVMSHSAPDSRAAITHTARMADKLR
smiles,measurement,setting,value
"NS(=O)(=O)c1c(CC2(F)CCNCC2)ccc(-c2ccc(C3CCNCC3)cc2)c1-c1nn[nH]n1 [Example 464, 4-((4-fluoropiperidin-4-yl)methyl)-4′-(piperidin-4-yl)-2-(2H-tetrazol-5-yl)-[1,1′-biphenyl]-3-sulfonamide]",IC50,IMP-1; [4],18.7 nM
same,IC50,VIM-1; [5],1.95 nM
same,Serratia marcescens MITC95,[1]; [6],1.563 µM
same,Klebsiella pneumoniae MITC95,[2]; [7],1.563 µM
same,Escherichia coli MITC95,[3]; [8],0.7813 µM
same,IC50,NDM-1; [9],3.82 nM
"NS(=O)(=O)c1c(CC[C@H]2CC[C@@H](N)CC2)ccc(-c2ccc(C3CCNCC3)cc2)c1-c1nn[nH]n1 [Example 462, 4-(2-((1s,4r)-4-aminocyclohexyl)ethyl)-4′-(piperidin-4-yl)-2-(2H-tetrazol-5-yl)-[1,1′-biphenyl]-3-sulfonamide]",IC50,IMP-1; [4],11.5 nM
same,IC50,VIM-1; [5],8.13 nM
same,Serratia marcescens MITC95,[1]; [6],1.563 µM
same,Klebsiella pneumoniae MITC95,[2]; [7],18.75 µM
same,Escherichia coli MITC95,[3]; [8],0.7813 µM
same,IC50,NDM-1; [9],3.8 nM
"NS(=O)(=O)c1cccc(C2CCC2)c1-c1nnn[nH]1 [Example 149, 3-cyclobutyl-2-(1H-tetrazol-5-yl)benzenesulfonamide]",IC50,IMP-1; [10],493 nM
same,IC50,VIM-1; [11],861 nM
same,Serratia marcescens expressing IMP-1 (CL5741) MITC95,[1],6.25 µM
same,Klebsiella pneumoniae expressing VIM-1 (IHMA 599644) MITC95,[2],150 µM
same,Escherichia coli expressing NDM-1 (CLB 30016) MITC95,[3],1.563 µM
same,IC50,NDM-1; [10],23.7 nM
"NCCC1CCC(N2CC(c3ccc(-c4ccc(C(F)(F)F)c(S(N)(=O)=O)c4-c4nnn[nH]4)cc3)C2)CC1 (stereo not drawn) [Example 814, 4′-{1-[4-(2-aminoethyl)cyclohexyl]azetidin-3-yl}-2-(1H-tetrazol-5-yl)-4-(trifluoromethyl)biphenyl-3-sulfonamide]",IC50,IMP-1; [10],12.5 nM
same,IC50,VIM-1; [11],22.5 nM
same,Serratia marcescens MITC95,[1]; [12],6.25 µM
same,Klebsiella pneumoniae MITC95,[2]; [13],100 µM
same,Escherichia coli MITC95,[3]; [14],6.25 µM
same,IC50,NDM-1; [10],8.08 nM
"NC1(CN2CC(c3ccc(-c4ccc(C(F)(F)F)c(S(N)(=O)=O)c4-c4nnn[nH]4)cc3)C2)CC1 [Example 806, 4′-{1-[(1-aminocyclopropyl)methyl]azetidin-3-yl}-2-(1H-tetrazol-5-yl)-4-(trifluoromethyl)biphenyl-3-sulfonamide]",IC50,IMP-1; [10],7.67 nM
same,IC50,VIM-1; [11],5.02 nM
same,Serratia marcescens MITC95,[1]; [12],6.25 µM
same,Klebsiella pneumoniae MITC95,[2]; [13],12.5 µM
same,Escherichia coli MITC95,[3]; [14],6.25 µM
same,IC50,NDM-1; [10],4.68 nM
"NC1CCC(c2ccc(-c3ccc(C4CCNCC4)cc3)c(-c3nn[nH]n3)c2S(N)(=O)=O)CC1 (stereo not drawn) [Example 459, 4-(4-aminocyclohexyl)-4′-(piperidin-4-yl)-2-(2H-tetrazol-5-yl)-[1,1′-biphenyl]-3-sulfonamide]",IC50,IMP-1; [4],86.6 nM
same,IC50,VIM-1; [5],112 nM
same,Serratia marcescens MITC95,[1]; [6],1.172 µM
same,Klebsiella pneumoniae MITC95,[2]; [7],3.125 µM
same,Escherichia coli MITC95,[3]; [8],6.25 µM
same,IC50,NDM-1; [9],1120 nM
"NC1Cc2cccc(-c3ccc(C(F)(F)F)c(S(N)(=O)=O)c3-c3nnn[nH]3)c2C1 (stereo not drawn) [Example 836, 3-(2-aminoindan-4-yl)-2-(1H-tetrazol-5-yl)-6-(trifluoromethyl)benzenesulfonamide]",IC50,IMP-1; [10],134 nM
same,IC50,VIM-1; [11],2.39 nM
same,Serratia marcescens MITC95,[1]; [12],4.688 µM
same,Klebsiella pneumoniae MITC95,[2]; [13],1.563 µM
same,Escherichia coli MITC95,[3]; [14],2.344 µM
same,IC50,NDM-1; [10],54.9 nM
"COc1cc(-c2cccc(S(N)(=O)=O)c2-c2nnn[nH]2)ccn1 [Example 135, 3-(2-methoxypyridin-4-yl)-2-(1H-tetrazol-5-yl)benzenesulfonamide]",IC50,IMP-1; [10],62.6 nM
same,IC50,VIM-1; [11],61.9 nM
same,Serratia marcescens expressing IMP-1 (CL5741) MITC95,[1],1.172 µM
same,Klebsiella pneumoniae expressing VIM-1 (IHMA 599644) MITC95,[2],18.75 µM
same,Escherichia coli expressing NDM-1 (CLB 30016) MITC95,[3],1.172 µM
same,IC50,NDM-1; [10],4.47 nM
"CN1CCC(NCc2ccc(-c3cccc(S(N)(=O)=O)c3-c3nnn[nH]3)cc2)C1=O (stereo not drawn) [Example 349, 4′-{[(1-methyl-2-oxopyrrolidin-3-yl)amino]methyl}-2-(1H-tetrazol-5-yl)biphenyl-3-sulfonamide]",IC50,IMP-1; [4],61.1 nM
same,IC50,"VIM-1; VIM-1 IC50, VIM-1 enzyme, CCF2-FA fluorescence assay",637 nM
same,Serratia marcescens MITC95,[1]; [6],2.344 µM
same,Klebsiella pneumoniae MITC95,[2]; [7],>200 µM
same,Escherichia coli MITC95,[3]; [8],6.25 µM
same,IC50,NDM-1; [9],4.32 nM
"NS(=O)(=O)c1c(CC2CCNCC2)ccc(-c2ccc(C3CCNCC3)cc2)c1-c1nn[nH]n1 [Example 456, 4′-(piperidin-4-yl)-4-(piperidin-4-ylmethyl)-2-(2H-tetrazol-5-yl)-[1,1′-biphenyl]-3-sulfonamide]",IC50,IMP-1; [4],9.79 nM
same,IC50,VIM-1; [5],3.44 nM
same,Serratia marcescens MITC95,[1]; [6],0.5859 µM
same,Klebsiella pneumoniae MITC95,[2]; [7],1.172 µM
same,Escherichia coli MITC95,[3]; [8],0.5859 µM
same,IC50,NDM-1; [9],4.58 nM
"NCC1CCC(N2CCC(c3ccc(-c4ccc(C(F)(F)F)c(S(N)(=O)=O)c4-c4nnn[nH]4)cc3)CC2)CC1 (stereo not drawn) [Example 787, 4′-{1-[4-(aminomethyl)cyclohexyl]piperidin-4-yl}-2-(1H-tetrazol-5-yl)-4-(trifluoromethyl)biphenyl-3-sulfonamide]",IC50,IMP-1; [10],1.71 nM
same,IC50,VIM-1; [11],8.1 nM
same,Serratia marcescens MITC95,[1]; [12],3.125 µM
same,Klebsiella pneumoniae MITC95,[2]; [13],25 µM
same,Escherichia coli MITC95,[3]; [14],1.563 µM
same,IC50,NDM-1; [10],7.09 nM
"NS(=O)(=O)c1c(C(F)(F)F)ccc(-c2ccc3c(c2)CNC3)c1-c1nnn[nH]1 [Example 715, 3-(2,3-dihydro-1H-isoindol-5-yl)-2-(1H-tetrazol-5-yl)-6-(trifluoromethyl)benzenesulfon-amide]",IC50,IMP-1; [15],27.4 nM
same,IC50,VIM-1; [16],0.729 nM
same,Serratia marcescens MITC95,[1]; [17],12.5 µM
same,Klebsiella pneumoniae MITC95,[2]; [18],3.125 µM
same,Escherichia coli MITC95,[3]; [19],6.25 µM
same,IC50,NDM-1; [20],25.3 nM
"NC1CCCC1N1CC(c2ccc(-c3ccc(C(F)(F)F)c(S(N)(=O)=O)c3-c3nnn[nH]3)cc2)C1 (stereo not drawn) [Example 811, 4′-[1-(2-aminocyclopentyl)azetidin-3-yl]-2-(1H-tetrazol-5-yl)-4-(trifluoromethyl)biphenyl-3-sulfonamide]",IC50,IMP-1; [10],9.42 nM
same,IC50,"VIM-1; VIM-1 IC50, fluorescence assay with CCF2-FA substrate",27.9 nM
same,Serratia marcescens MITC95,[1]; [12],6.25 µM
same,Klebsiella pneumoniae MITC95,[2]; [13],100 µM
same,Escherichia coli MITC95,[3]; [14],1.563 µM
same,IC50,NDM-1; [10],4.78 nM
"CC1(O)CN(c2ccc(-c3cccc(S(N)(=O)=O)c3-c3nnn[nH]3)cn2)C1 [Example 635, 3-[6-(3-hydroxy-3-methyl-azetidin-1-yl)-3-pyridyl]-2-(1H-tetrazol-5-yl)benzenesulfonamide]",IC50,IMP-1; [15],91.5 nM
same,IC50,VIM-1; [16],258 nM
same,Serratia marcescens MITC95,[1]; [17],7.813 µM
same,Klebsiella pneumoniae MITC95,[2]; [18],112.5 µM
same,Escherichia coli MITC95,[3]; [19],2.148 µM
same,IC50,NDM-1; [20],4.92 nM
"NC(=O)Cc1ccc(-c2ccc(C(F)(F)F)c(S(N)(=O)=O)c2-c2nn[nH]n2)cc1 [Example 448, 2-(3′-sulfamoyl-2′-(2H-tetrazol-5-yl)-4′-(trifluoromethyl)-[1,1′-biphenyl]-4-yl)acetamide]",IC50,IMP-1; [4],2.17 nM
same,IC50,VIM-1; [5],0.962 nM
same,Serratia marcescens MITC95,[1]; [6],0.1953 µM
same,Klebsiella pneumoniae MITC95,[2]; [7],6.25 µM
same,Escherichia coli MITC95,[3]; [8],3.125 µM
same,IC50,NDM-1; [9],2.1 nM
"CC(C)[C@H](N)CN1CCC(c2ccc(-c3cccc(S(N)(=O)=O)c3-c3nnn[nH]3)cc2)CC1 [Example 615, 3-[4-[1-[(2S)-2-amino-3-methyl-butyl]-4-piperidyl]phenyl]-2-(1H-tetrazol-5-yl)benzenesulfonamide]",IC50,IMP-1; [15],16.7 nM
same,IC50,VIM-1; [16],621 nM
same,Serratia marcescens MITC95,[1]; [17],1.172 µM
same,Klebsiella pneumoniae MITC95,[2]; [18],>200 µM
same,Escherichia coli MITC95,[3]; [19],0.7813 µM
same,IC50,NDM-1; [20],9.84 nM
"NC1=NCC(c2ccc(-c3cccc(S(N)(=O)=O)c3-c3nnn[nH]3)cc2)CN1 (stereo not drawn) [Example 511, 4′-(2-Amino-1,4,5,6-tetrahydropyrimidin-5-yl)-2-(1H-tetrazol-5-yl)-[1,1′-biphenyl]-3-sulfonamide]",IC50,IMP-1; [15],14.3 nM
same,IC50,"VIM-1; VIM-1 IC50, VIM-1 enzyme, CCF2-FA substrate",41.6 nM
same,Serratia marcescens MITC95,[1]; [17],3.125 µM
same,Klebsiella pneumoniae MITC95,[2]; [18],100 µM
same,Escherichia coli MITC95,[3]; [19],3.125 µM
same,IC50,NDM-1; [20],4.8 nM
"NC(=O)CCc1ccc(-c2cccc3sc(N)nc23)c(-c2nn[nH]n2)c1S(N)(=O)=O [Example 539, 3-(4-(2-Aminobenzo[d]thiazol-4-yl)-2-sulfamoyl-3-(2H-tetrazol-5-yl)phenyl)propanamide]",IC50,IMP-1; [15],7.62 nM
same,IC50,VIM-1; [16],1.85 nM
same,Serratia marcescens MITC95,[1]; [17],12.5 µM
same,Klebsiella pneumoniae MITC95,[2]; [18],25 µM
same,Escherichia coli MITC95,[3]; [19],3.125 µM
same,IC50,NDM-1; [20],0.192 nM
